Assays:
Wnt pathway = settings: relative to IWR-1; cited from earlier work
mouse EpiSCs = test: Mouse EpiSC self-renewal culture; assay type: cell-based; settings: compared to IWR-1, XAV939 and JW55
From the text: We therefore reasoned that if CHIR induces EpiSC differentiation through stabilization of β-catenin, de-stabilization of β-catenin might promote EpiSC self-renewal. We tested this hypothesis by administering the tankyrase inhibitor XAV939 to mouse EpiSC cultures. XAV939-mediated inhibition of tankyrase stabilizes Axin, leading to the formation of the β-catenin destruction complex, composed of GSK3, Axin and adenomatous polyposis coli (APC) (Huang et al., 2009). […] EpiSCs cultured in CHIR/XAV could be routinely passaged by single-cell dissociation and replating onto gelatin-coated dishes, and could be cryo-preserved and recovered at high efficiency by standard techniques.
final concentrations: CHIR99021 (3 μM), PD0325901 (1 μM), XAV939 (Sigma, 2 μM), IWR-1 (Sigma, 2.5 μM), IWP-2 (Stemgent, 2.5 μM), Pyrvinium (Sigma, 100 nM), recombinant human FGF2 (PeproTech, 10 ng/ml), and recombinant human activin A (PeproTech, 10 ng/ml). CHIR99021 and PD0325901 were synthesized in the Division of Signal Transduction Therapy, University of Dundee, UK.
(§1) The basal medium for mouse EpiSC culture is the conventional mouse ESC medium, which consists of GMEM (Sigma) supplemented with 10% fetal bovine serum (FBS) (Hyclone), 2 mM L-glutamine (Invitrogen), 1 mM sodium pyruvate (Invitrogen), 1% nonessential amino acids (Invitrogen), and 0.1 mM (3-mercaptoethanol. Mouse EpiSCs were derived and maintained in the basal medium supplemented with FGF2/activin, CHIR/XAV, or CHIR/IWR-1. The basal medium for rat EpiSC culture is N2B27 (Tong et al., 2011), which was prepared by mixing 500 ml of DMEM/F12 (Invitrogen) with 500 ml of Neurobasal™ medium (Invitrogen), and adding 5 ml of N2 (Invitrogen), 10 ml of B27 (Invitrogen), 5 ml of Glutamax™ (Invitrogen), and 1 ml of 0.1 M β-mercaptoethanol (Sigma). The basal medium for human ESC culture consists of Knockout™ DMEM/F12 supplemented with 20% KSR (Invitrogen), 1% nonessential amino acids, 2 mM L-glutamine, and 0.1 mM (3-mercaptoethanol. Human ESCs were cultured in the basal medium supplemented with FGF2, CHIR/XAV, or CHIR/IWR-1.
Post-implantation epiblasts were isolated from mouse or rat embryos and dissociated into small clumps as previously described (Chenoweth and Tesar, 2010). Epiblast fragments were placed into 4-well plates pre-coated with 0.1% gelatin (for mouse epiblasts) or pre-seeded with γ-irradiated mouse embryonic fibroblasts (MEFs) (for rat epiblasts) and cultured in either the FGF2/activin or the CHIR/XAV conditions. Emerging EpiSCs were trypsinized and expanded every 2-3 days at a subculture ratio of 1:4. Animal experiments were performed according to the investigator's protocols approved by the University of Southern California Institutional Animal Care and Use Committee.

H9 human ESCs = test: Human ESC self-renewal culture; assay type: cell-based; settings: compared to IWR-1, XAV939 and JW55
From the text: As human ESCs share defining features with mouse EpiSCs (Hanna et al., 2010; Rossant, 2008; Tesar et al., 2007), we tested whether modulating β-catenin function can also promote human ESC self-renewal. […] Next, we examined the effect of CHIR/XAV and CHIR/IWR-1 on human ESC self-renewal. […] Similar results were obtained in H1 and HES3 human ESCs (data not shown). […] Moreover, human ESCs maintained in CHIR/IWR-1 express pluripotency markers Oct4, Nanog and Sox2 (FIG. 7E), and retain the ability to differentiate into cells of all three germ layers, both in vitro and in vivo (FIGS. 7F and 7G).
as §1
H1, H9, HES-2 and HES-3 human ESC lines were kindly provided by the University of Southern California Stem Cell Core Facility. Human ESCs were routinely maintained on γ-irradiated MEF feeders in Knockout™ DMEM medium (Invitrogen) supplemented with 20% Knockout™ serum replacement (KSR; Invitrogen), 10 ng/ml FGF2 (PeproTech), 1% nonessential amino acids, 2 mM L-glutamine, and 0.1 mM β-mercaptoethanol. […]

Compound: O=C1C([C@H]2CC[C@H](C(=O)Nc3cccc4cccnc34)CC2)C(=O)[C@H]2[C@H]3CC[C@H](C3)[C@@H]12 (stereo partly drawn) [53AH, (1R,4r)-4-((2s,3aR,4R,7S,7aS)-1,3-dioxooctahydro-1H-4,7-methanoinden-2-yl)-N-(quinolin-8-yl)cyclohexanecarboxamide]
- potency in Wnt inhibition compared to IWR-1 (Wnt pathway): 5 fold
- robustness for long-term expansion of mouse EpiSCs (mouse EpiSCs): more robust for long-term expansion
- robustness for long-term expansion of human ESCs (H9 human ESCs): more robust for long-term expansion

Reference: US20130273649A1, “Culture medium for pluripotent stem cells” (UNIVERSITY OF SOUTHERN CALIFORNIA, priority 2012, published 2013)
